Measurements reported in article PMC6764326, “The Trials and Tribulations of Structure Assisted Design of KCa Channel Activators” (Frontiers in Pharmacology, 2019).
Each block holds one compound with its values, some of them ahead of it.

Assays:
[1] = tested on: KCa3.1 over KCa2 channels; conditions: first generation activators; ref Christophersen and Wulff, 2015; cited from earlier work
[2] = tested on: S372 in KCa3.1 or the corresponding S632 residue in KCa2.3 to arginine; parameters: method as in Brown et al., 2017; conditions: ref Brown et al., 2017; cited from earlier work
KCa3.1 = conditions: cited from earlier work; for EC50: ref Coleman et al., 2014, read-out: Potency of KCa3.1 activation
KCa2.2 = tested on: KCa2.2; parameters: method as in Sankaranarayanan et al., 2009; conditions: ref Sankaranarayanan et al., 2009; cited from earlier work
KCa2.3 = tested on: KCa2.3; parameters: method as in Coleman et al., 2014; conditions: ref Coleman et al., 2014; read-out: Potency of KCa2.3 activation; cited from earlier work
KCa2 = tested on: KCa2; parameters: method as in Coleman et al., 2014; conditions: ref Coleman et al., 2014; read-out: Potency of KCa2 activation; cited from earlier work
WT KCa3.1 [3] = biological target: T1, WT KCa3.1 (Homo sapiens, UniProt O15554+P0DP23); experiment: Inside-out patch-clamp calcium concentration-response; type: cell-based; parameters: expressed in transfected cells; host or cells: CHO cells, transient transfection
Protocol: (§1) All experiments were performed in either the inside-out or the whole-cell configuration of the patch-clamp technique on either transiently transfected CHO cells or Human Embryonic Kidney (HEK) cell lines stably expressing hKCa3.1 or hKCa2.2 ([Sankaranarayanan et al., 2009]). All cells were cultured in Dulbecco’s modified Eagle’s medium supplemented with 10% fetal calf serum. […]
(§2) For manual whole-cell experiments, the extracellular solution contained 160 mM NaCl, 4.5 mM KCl, 2 mM CaCl2, 1 mM MgCl2, and 10 mM HEPES (pH 7.4, 300 mOsm). Solutions on the intracellular side contained 154 mM KCl, 10 mM HEPES, 10 mM EGTA, 1.75 mM MgCl2, and 5.9 mM CaCl2 for a calculated free Ca^2+ concentration of 250 nM (pH 7.2, 290 mOsm). […] Intracellular solutions contained 154 mM KCl, 10 mM HEPES, 10 mM EGTA, 1.75 mM MgCl2, and varying amounts of CaCl2 for calculated free Ca^2+ concentrations of […] (pH 7.2, 280–300 mOsm). Free Ca^2+ concentrations were calculated using the July 3, 2009 online version of MaxChelator (https://somapp.ucdmc.ucdavis.edu/pharmacology/bers/maxchelator/webmaxc/webmaxcS.htm) assuming a temperature of 25°C, a pH of 7.2, and an ionic strength of 160 mM. […]

[4] = biological target: T2, KCa3.1 S181A-L185A double mutant (Homo sapiens, UniProt O15554+P0DP23, L185A/S181A); experiment: as above; type: cell-based
T2 construct: expressed in transfected cells; host or cells: CHO cells, transient transfection
Protocol: as §1, §2

WT KCa3.1 [5] = biological target: T1, WT KCa3.1; conditions: 100 µM EBIO; control current at 250 nM free Ca2+; wild type channel

Structure (SMILES): O=C1Nc2c(ccc(Cl)c2Cl)C1=NO [NS309, 6,7-dichloro-1H-indole-2,3-dione 3-oxime]
- Selectivity for KCa3.1 over KCa2 channels [1]: 5–10 fold
- Change of activator potency by S372R (KCa3.1) / S632R (KCa2.3) mutation [2]: strong reduction in potency

Structure (SMILES): Nc1nc2c(ccc3ccccc32)s1 [SKA-31, Naphtho[1,2-d]thiazol-2-ylamine]
- Selectivity for KCa3.1 over KCa2 channels [1]: 5–10 fold
- Activation of KCa3.1 at 10 µM (KCa3.1; 10 µM, ref Sankaranarayanan et al., 2009): maximally activates
- Activation of KCa2.2 at 10 µM (KCa2.2): maximally activates

Structure (SMILES): Nc1nc(-c2cccc3ccccc23)cs1 [SKA-75]
- EC50 (KCa2.3): ~30 µM
- EC50 (KCa3.1): ~30 µM

Structure (SMILES): Cc1nc2c(ccc3ccccc32)s1 [SKA-74, 2-methylnaphtho[1,2-d]thiazole]
- EC50 (KCa2): ~30 µM
- EC50 (KCa3.1): ~30 µM

- EC50 (WT KCa3.1 [3]): 0.437 µM
- nH calcium concentration-response (WT KCa3.1 [3]): 1.98
- EC50 [4]: 0.392 µM
- nH calcium concentration-response [4]: 1.39
Structure (SMILES): [Ca] [calcium]

Structure (SMILES): CCn1c(=O)[nH]c2ccccc21 [EBIO]
- Selectivity for KCa3.1 over KCa2 channels [1]: 5–10 fold
- Increase of control current (WT KCa3.1 [5]): 5–10 fold
- Change of activator potency by S372R (KCa3.1) / S632R (KCa2.3) mutation [2]: strong reduction in potency

Structure (SMILES): Nc1nc(-c2ccc3ccccc3c2)cs1 [SKA-76]
- EC50 (KCa2.3): ~25 µM
- EC50 (KCa3.1): ~50 µM
